Reference: PMC5218480 (PLoS ONE, 2017)

Test system: MV-4-11 cells
Experiment: Gene expression microarray analysis (Affymetrix PrimeView) and GSEA
Assay type: cell-based, human
Set-up: RFU PODN (11730768_x_at) / Fold change /veh PODN (11730768_x_at) / RFU LINC00158 (11744669_a_at) / Fold change /veh LINC00158 (11744669_a_at) / RFU DUSP10 (11751237_a_at) / Fold change /veh DUSP10 (11751237_a_at) / RFU ID3 (11757404_x_at) / Fold change /veh ID3 (11757404_x_at) / RFU PLEKHG5 (11737974_s_at) / Fold change /veh PLEKHG5 (11737974_s_at) / RFU LRRC4B (11730491_at) / Fold change /veh LRRC4B (11730491_at) / RFU GIMAP4 (11747438_a_at) / Fold change /veh GIMAP4 (11747438_a_at) / RFU KRT8 (11758183_x_at) / Fold change /veh KRT8 (11758183_x_at) / RFU CNN1 (11734310_a_at) / Fold change /veh CNN1 (11734310_a_at) / RFU VPS37D (11726825_at) / Fold change /veh VPS37D (11726825_at) / RFU C10orf10 (11716522_x_at) / Fold change /veh C10orf10 (11716522_x_at) / RFU KIR2DL2 /// KIR2DL4 /// KIR2DL5A /// KIR2DL5B /// KIR2DS1 /// KIR2DS2 /// KIR2DS3 /// KIR2DS4 /// KIR3DL3 /// KIR3DL3 /// KIR3DS1 (11738374_at) / Fold change /veh KIR2DL2 /// KIR2DL4 /// KIR2DL5A /// KIR2DL5B /// KIR2DS1 /// KIR2DS2 /// KIR2DS3 /// KIR2DS4 /// KIR3DL3 /// KIR3DL3 /// KIR3DS1 (11738374_at) / RFU C1QL1 (11718748_at) / Fold change /veh C1QL1 (11718748_at) / RFU TMPRSS4 (11747572_a_at) / Fold change /veh TMPRSS4 (11747572_a_at) / RFU HAMP (11756126_x_at) / Fold change /veh HAMP (11756126_x_at) / RFU RNFT2 (11725882_a_at) / Fold change /veh RNFT2 (11725882_a_at) / RFU NR4A2 (11747474_a_at) / Fold change /veh NR4A2 (11747474_a_at) / RFU ABCC12 (11746883_a_at) / Fold change /veh ABCC12 (11746883_a_at) / RFU TMEM136 (11760407_x_at) / Fold change /veh TMEM136 (11760407_x_at) / RFU CLDN22 /// WWC2 (11732394_at) / Fold change /veh CLDN22 /// WWC2 (11732394_at) / RFU HLA-DPB1 (11760878_x_at) / Fold change /veh HLA-DPB1 (11760878_x_at) / RFU SPINT1 (11716480_a_at) / Fold change /veh SPINT1 (11716480_a_at) / RFU GAP43 (11754022_s_at) / Fold change /veh GAP43 (11754022_s_at) / RFU A4GNT (11735810_at) / Fold change /veh A4GNT (11735810_at) / RFU PRB3 (11715151_x_at) / Fold change /veh PRB3 (11715151_x_at) / RFU TUBB4B (11761932_at) / Fold change /veh TUBB4B (11761932_at) / RFU CAPN14 (11732068_a_at) / Fold change /veh CAPN14 (11732068_a_at) / RFU TMCC2 (11721928_a_at) / Fold change /veh TMCC2 (11721928_a_at) / RFU IRGQ (11745062_a_at) / Fold change /veh IRGQ (11745062_a_at) / RFU FAM174B (11720279_a_at) / Fold change /veh FAM174B (11720279_a_at) / RFU TMPRSS4 (11748680_a_at) / Fold change /veh TMPRSS4 (11748680_a_at) / RFU FAM212B (11763350_a_at) / Fold change /veh FAM212B (11763350_a_at) / RFU PLEKHG5 (11743358_a_at) / Fold change /veh PLEKHG5 (11743358_a_at) / RFU ZSCAN30 (11745921_a_at) / Fold change /veh ZSCAN30 (11745921_a_at) / RFU CMKLR1 (11741424_a_at) / Fold change /veh CMKLR1 (11741424_a_at) / RFU LOC101060620 /// MAPK8IP1 (11723275_at) / Fold change /veh LOC101060620 /// MAPK8IP1 (11723275_at) / RFU SPTSSB (11747773_x_at) / Fold change /veh SPTSSB (11747773_x_at) / RFU PRSS12 (11739890_at) / Fold change /veh PRSS12 (11739890_at) / RFU BIN1 (11741810_x_at) / Fold change /veh BIN1 (11741810_x_at) / RFU WNT11 (11732464_a_at) / Fold change /veh WNT11 (11732464_a_at) / RFU C10orf10 (11716521_a_at) / Fold change /veh C10orf10 (11716521_a_at) / RFU C5orf56 (11738089_at) / Fold change /veh C5orf56 (11738089_at) / RFU CYB561 (11721691_x_at) / Fold change /veh CYB561 (11721691_x_at) / RFU ANKRD19P (11752326_a_at) / Fold change /veh ANKRD19P (11752326_a_at) / RFU OR2T12 /// OR2T33 /// OR2T8 (11738714_s_at) / Fold change /veh OR2T12 /// OR2T33 /// OR2T8 (11738714_s_at) / RFU VCAN (11748164_a_at) / Fold change /veh VCAN (11748164_a_at) / RFU JSRP1 (11732532_at) / Fold change /veh JSRP1 (11732532_at) / RFU KRTAP10-11 (11738290_x_at) / Fold change /veh KRTAP10-11 (11738290_x_at) / RFU MYO3A (11730013_a_at) / Fold change /veh MYO3A (11730013_a_at) / RFU EBF3 (11725865_a_at) / Fold change /veh EBF3 (11725865_a_at) / RFU CAMK2N1 (11719241_x_at) / Fold change /veh CAMK2N1 (11719241_x_at) / RFU C5orf56 (11738088_a_at) / Fold change /veh C5orf56 (11738088_a_at) / RFU OLFML3 (11715873_a_at) / Fold change /veh OLFML3 (11715873_a_at) / RFU LOC100653217 /// NTM (11731650_a_at) / Fold change /veh LOC100653217 /// NTM (11731650_a_at) / RFU MAPK11 (11762145_a_at) / Fold change /veh MAPK11 (11762145_a_at) / RFU FIZ1 (11724087_x_at) / Fold change /veh FIZ1 (11724087_x_at) / RFU OASL (11726364_x_at) / Fold change /veh OASL (11726364_x_at) / RFU SOX15 (11748057_x_at) / Fold change /veh SOX15 (11748057_x_at) / RFU CD79A (11719716_a_at) / Fold change /veh CD79A (11719716_a_at) / RFU HIST1H1D (11736915_at) / Fold change /veh HIST1H1D (11736915_at) / RFU CASKIN2 (11723855_a_at) / Fold change /veh CASKIN2 (11723855_a_at) / RFU LOC730098 (11760151_x_at) / Fold change /veh LOC730098 (11760151_x_at) / RFU OR4N2 (11742367_at) / Fold change /veh OR4N2 (11742367_at) / RFU PRRT2 (11749266_a_at) / Fold change /veh PRRT2 (11749266_a_at) / RFU SNX32 (11753110_a_at) / Fold change /veh SNX32 (11753110_a_at) / RFU CDHR5 (11726645_a_at) / Fold change /veh CDHR5 (11726645_a_at) / RFU RCAN1 (11760418_a_at) / Fold change /veh RCAN1 (11760418_a_at) / RFU FAM167A (11723789_a_at) / Fold change /veh FAM167A (11723789_a_at) / RFU FAM26E (11764081_at) / Fold change /veh FAM26E (11764081_at) / RFU ISYNA1 (11749810_s_at) / Fold change /veh ISYNA1 (11749810_s_at) / RFU ACY1 (11761880_at) / Fold change /veh ACY1 (11761880_at) / RFU 11764098_at / Fold change /veh 11764098_at / RFU SAMD14 (11745864_x_at) / Fold change /veh SAMD14 (11745864_x_at) / RFU NPB (11741838_a_at) / Fold change /veh NPB (11741838_a_at) / RFU TMPRSS6 (11731388_a_at) / Fold change /veh TMPRSS6 (11731388_a_at) / RFU KRTAP10-2 (11738614_at) / Fold change /veh KRTAP10-2 (11738614_at) / RFU ARHGAP8 /// PRR5-ARHGAP8 (11727945_x_at) / Fold change /veh ARHGAP8 /// PRR5-ARHGAP8 (11727945_x_at) / RFU KRTAP5-7 /// NADSYN1 (11734609_at) / Fold change /veh KRTAP5-7 /// NADSYN1 (11734609_at) / RFU RASL12 (11751679_a_at) / Fold change /veh RASL12 (11751679_a_at) / RFU CDKN2B (11736163_a_at) / Fold change /veh CDKN2B (11736163_a_at) / RFU PRF1 (11729649_at) / Fold change /veh PRF1 (11729649_at) / RFU, ZNF638 /// ZNF638-IT1 / Fold change vs veh, ZNF638 /// ZNF638-IT1 / RFU, PANK3 / Fold change vs veh, PANK3 / RFU, SH3YL1 / Fold change vs veh, SH3YL1 / RFU, ZEB2 / Fold change vs veh, ZEB2 / RFU, NRIP1 / Fold change vs veh, NRIP1 / RFU, PTTG1IP / Fold change vs veh, PTTG1IP / RFU, CAPN2 / Fold change vs veh, CAPN2 / RFU, MED14 / Fold change vs veh, MED14 / RFU, SNORA58 / Fold change vs veh, SNORA58 / RFU, C1orf63 / Fold change vs veh, C1orf63 / RFU, LRRFIP1 / Fold change vs veh, LRRFIP1 / RFU, NDUFAF7 / Fold change vs veh, NDUFAF7 / RFU, SLC12A2 / Fold change vs veh, SLC12A2 / RFU, IBTK / Fold change vs veh, IBTK / RFU, ESF1 / Fold change vs veh, ESF1 / Fold change vs veh, TMEM50B / RFU, TAOK1 / Fold change vs veh, TAOK1 / RFU, ACBD3 / Fold change vs veh, ACBD3 / RFU, TMA16 / Fold change vs veh, TMA16 / RFU, RWDD3 / Fold change vs veh, RWDD3 / RFU, BCAT1 / Fold change vs veh, BCAT1 / RFU, EDEM3 / Fold change vs veh, EDEM3 / RFU, TMEM33 / Fold change vs veh, TMEM33 / RFU, WDR75 / Fold change vs veh, WDR75 / RFU, AHCTF1 / Fold change vs veh, AHCTF1 / RFU, TFRC / Fold change vs veh, TFRC / RFU, ZDHHC17 / Fold change vs veh, ZDHHC17 / RFU, NOM1 / Fold change vs veh, NOM1 / RFU, ARL8B / Fold change vs veh, ARL8B / RFU, ZBTB11 / Fold change vs veh, ZBTB11 / RFU, TAMM41 / Fold change vs veh, TAMM41 / RFU, KIAA1704 /// LOC100996395 / Fold change vs veh, KIAA1704 /// LOC100996395 / RFU, ING1 / Fold change vs veh, ING1 / RFU, TRMT61B / Fold change vs veh, TRMT61B / RFU, FUBP3 / Fold change vs veh, FUBP3 / RFU, TP53 / Fold change vs veh, TP53 / RFU, TNKS2 / Fold change vs veh, TNKS2 / RFU, ZFP14 / Fold change vs veh, ZFP14 / RFU, ACTR2 / Fold change vs veh, ACTR2 / RFU, PPP3R1 / Fold change vs veh, PPP3R1 / RFU, PIK3R1 / Fold change vs veh, PIK3R1 / RFU, HNRNPA1 / Fold change vs veh, HNRNPA1 / RFU, RNF170 / Fold change vs veh, RNF170 / RFU, ZNF28 / Fold change vs veh, ZNF28 / RFU, RNGTT / Fold change vs veh, RNGTT / RFU, OGT / Fold change vs veh, OGT / RFU, BRD1 / Fold change vs veh, BRD1 / RFU, MARS / Fold change vs veh, MARS / RFU, ZNF655 / Fold change vs veh, ZNF655 / RFU, FAHD1 / Fold change vs veh, FAHD1 / RFU, BDP1 / Fold change vs veh, BDP1 / RFU, LRRCC1 / Fold change vs veh, LRRCC1 / RFU, ARID1A / Fold change vs veh, ARID1A / RFU, ZNF146 / Fold change vs veh, ZNF146 / RFU, ZNF330 / Fold change vs veh, ZNF330 / RFU, GPN3 / Fold change vs veh, GPN3 / RFU, C9orf123 / Fold change vs veh, C9orf123 / RFU, N4BP2L2 / Fold change vs veh, N4BP2L2 / RFU, ARFIP1 / Fold change vs veh, ARFIP1 / RFU, FAM179B / Fold change vs veh, FAM179B / RFU, BCL10 / Fold change vs veh, BCL10 / RFU, UHRF1BP1L / Fold change vs veh, UHRF1BP1L / RFU, BET1 / Fold change vs veh, BET1 / RFU, CNOT2 / Fold change vs veh, CNOT2 / RFU, ZNF268 / Fold change vs veh, ZNF268 / Fold change vs veh, ZNF507 / RFU, DGCR2 / Fold change vs veh, DGCR2 / RFU, WDSUB1 / Fold change vs veh, WDSUB1 / Fold change vs veh, HSP90B1 /// MIR3652 / RFU, ADSS / Fold change vs veh, ADSS / RFU, GK / Fold change vs veh, GK / RFU, ZNF148 / Fold change vs veh, ZNF148 / RFU, TAF9 / Fold change vs veh, TAF9 / RFU, SLC1A5 / Fold change vs veh, SLC1A5 / RFU, SLMO2 / Fold change vs veh, SLMO2 / RFU, ABCC4 / Fold change vs veh, ABCC4 / RFU, LOC101060439 /// RAP1B / Fold change vs veh, LOC101060439 /// RAP1B / RFU, RFX7 / Fold change vs veh, RFX7 / RFU, GTPBP10 / Fold change vs veh, GTPBP10 / RFU, CNEP1R1 / Fold change vs veh, CNEP1R1 / RFU, BIVM-ERCC5 /// ERCC5 / Fold change vs veh, BIVM-ERCC5 /// ERCC5 / RFU, ILF3 / Fold change vs veh, ILF3 / RFU 11762660_at / Fold change /veh 11762660_at / RFU VCAN (11757783_s_at) / Fold change /veh VCAN (11757783_s_at) / RFU DDX43 (11728927_at) / Fold change /veh DDX43 (11728927_at) / RFU KRT8 (11758188_x_at) / Fold change /veh KRT8 (11758188_x_at) / RFU NKD1 (11759106_at) / Fold change /veh NKD1 (11759106_at) / RFU SRD5A1 (11742802_a_at) / Fold change /veh SRD5A1 (11742802_a_at) / RFU TPSAB1 /// TPSB2 (11721975_s_at) / Fold change /veh TPSAB1 /// TPSB2 (11721975_s_at) / RFU GSTM3 (11746129_a_at) / Fold change /veh GSTM3 (11746129_a_at) / RFU IL23R (11737362_x_at) / Fold change /veh IL23R (11737362_x_at) / RFU TMEM51 (11727254_a_at) / Fold change /veh TMEM51 (11727254_a_at) / RFU PIWIL2 (11732686_x_at) / Fold change /veh PIWIL2 (11732686_x_at) / RFU ORM1 (11744905_x_at) / Fold change /veh ORM1 (11744905_x_at) / RFU CCDC152 (11743942_at) / Fold change /veh CCDC152 (11743942_at) / RFU ECM1 (11717891_a_at) / Fold change /veh ECM1 (11717891_a_at) / RFU IL23R (11748794_a_at) / Fold change /veh IL23R (11748794_a_at) / RFU TNFAIP8L3 (11732012_x_at) / Fold change /veh TNFAIP8L3 (11732012_x_at) / RFU MBOAT4 (11741988_at) / Fold change /veh MBOAT4 (11741988_at) / RFU 11764193_at / Fold change /veh 11764193_at / RFU TMEM53 (11763286_at) / Fold change /veh TMEM53 (11763286_at) / RFU MAGEB2 (11727129_at) / Fold change /veh MAGEB2 (11727129_at) / RFU TMEM200A (11744735_a_at) / Fold change /veh TMEM200A (11744735_a_at) / RFU CCDC152 (11751479_a_at) / Fold change /veh CCDC152 (11751479_a_at) / RFU FAM211A (11726209_a_at) / Fold change /veh FAM211A (11726209_a_at) / RFU RGS16 (11746705_a_at) / Fold change /veh RGS16 (11746705_a_at) / RFU VCAN (11755009_s_at) / Fold change /veh VCAN (11755009_s_at) / RFU RHOB (11743442_s_at) / Fold change /veh RHOB (11743442_s_at) / RFU RGS16 (11720943_a_at) / Fold change /veh RGS16 (11720943_a_at) / RFU RGS16 (11720944_at) / Fold change /veh RGS16 (11720944_at) / RFU, VPS4B / Fold change vs veh, VPS4B / RFU, CREB1 / Fold change vs veh, CREB1 / RFU, DNAJC13 / Fold change vs veh, DNAJC13 / RFU, GNAQ / Fold change vs veh, GNAQ / RFU, CDK5R1 / Fold change vs veh, CDK5R1 / RFU, ZRANB3 / Fold change vs veh, ZRANB3 / RFU, CUL4A / Fold change vs veh, CUL4A / RFU, CCNY / Fold change vs veh, CCNY / RFU, UFL1 / Fold change vs veh, UFL1 / RFU, COG3 / Fold change vs veh, COG3 / RFU, DIAPH2 / Fold change vs veh, DIAPH2 / RFU, SKA2 / Fold change vs veh, SKA2 / RFU, AFF3 / Fold change vs veh, AFF3 / RFU, LMF1 / Fold change vs veh, LMF1 / RFU, IPO11 / Fold change vs veh, IPO11 / RFU, DFFB / Fold change vs veh, DFFB / RFU, FOXP1 / Fold change vs veh, FOXP1 / RFU, CARD8 / Fold change vs veh, CARD8 / RFU, STRN3 / Fold change vs veh, STRN3 / RFU, ADK / Fold change vs veh, ADK / RFU, RASSF2 / Fold change vs veh, RASSF2 / RFU, WIPF1 / Fold change vs veh, WIPF1 / RFU, LARP1B / Fold change vs veh, LARP1B / RFU, RASA1 / Fold change vs veh, RASA1 / RFU, RB1 / Fold change vs veh, RB1 / RFU, PPFIA1 / Fold change vs veh, PPFIA1 / RFU, MAT2A / Fold change vs veh, MAT2A / RFU, CCT5 / Fold change vs veh, CCT5 / RFU, WDR92 / Fold change vs veh, WDR92 / RFU, CUX1 / Fold change vs veh, CUX1 / RFU, TTC7A / Fold change vs veh, TTC7A / RFU, TMEM135 / Fold change vs veh, TMEM135 / RFU, DEPTOR / Fold change vs veh, DEPTOR / RFU, CPM / Fold change vs veh, CPM / RFU, DNAJB6 / Fold change vs veh, DNAJB6 / RFU, CACNA2D3 / Fold change vs veh, CACNA2D3 / RFU, DTX4 / Fold change vs veh, DTX4 / RFU, TFCP2 / Fold change vs veh, TFCP2 / RFU, GMCL1 /// GMCL1P1 / Fold change vs veh, GMCL1 /// GMCL1P1 / RFU, AEBP2 / Fold change vs veh, AEBP2 / RFU, SNHG1 /// SNORD22 /// SNORD25 /// SNORD26 /// SNORD27 /// SNORD28 /// SNORD29 /// SNORD31 / Fold change vs veh, SNHG1 /// SNORD22 /// SNORD25 /// SNORD26 /// SNORD27 /// SNORD28 /// SNORD29 /// SNORD31 / Fold change (Aza/veh), C12orf56 (ProbeSet 11735607_a_at) / Fold change (ACY-1035/veh), C12orf56 (ProbeSet 11735607_a_at) / Fold change (Aza/veh), FGFR1OP (ProbeSet 11751329_s_at) / Fold change (ACY-1035/veh), FGFR1OP (ProbeSet 11751329_s_at) / Fold change (Aza/veh), VPS36 (ProbeSet 11739960_a_at) / Fold change (ACY-1035/veh), VPS36 (ProbeSet 11739960_a_at) / RFU SYPL1 (11715823_x_at) / Fold change /veh SYPL1 (11715823_x_at) / RFU IGFBP7 (11715501_s_at) / Fold change /veh IGFBP7 (11715501_s_at) / RFU REEP3 (11722064_at) / Fold change /veh REEP3 (11722064_at) / RFU IGLL1 (11728026_x_at) / Fold change /veh IGLL1 (11728026_x_at): dose or concentration left out as unconfirmed
Settings: MV-4-11 cells, 48 hours

## Nc1ncn([C@@H]2O[C@H](CO)[C@@H](O)[C@H]2O)c(=O)n1 [azacitidine]
  RFU KRTAP10-11 (11738290_x_at): 43.89 RFU
